Where “and” joins values, the source holds several entries; their conditions need not be identical. Identical values can stand only once. Like-named read-outs stand apart in the source and are kept apart here. *1 amine or outer side, *2 acyl side, *3 side chain or, on linkers, in order; H or OH if unused. Where a SMILES comes first, the peptide text is derived from it. Bridges are numbered along the chain shown (N, C = ends). [ ]: non-standard residue; d: D form. The star is where a group is joined. Leu(3R-OH,Nα-propionyl) = CCC(=O)N[C@H](C(=O)*)[C@H](O)C(C)C; X1 = CC(C)[C@@H](O[*:3])[C@H](N[*:1])C(=O)[*:2]; NMeT = CN[C@H](C(=O)O)[C@@H](C)O; dPhLac = O=C(O)[C@H](O)Cc1ccccc1; NMeA = CN[C@@H](C)C(=O)O; NMeDha = C=C(NC)C(=O)O
What was measured:
[1] = test system: GPR35 genome-edited HepG2 clones; experiment: Label-free cellular impedance assay in GPR35 genome-edited HepG2 clones 19 and 27; assay type: cell-based, human
Description: Expression of full-length mRNA from the GPR35 gene was eliminated using a dual synthetic gRNA/RNP approach[43] with one guide cutting the intron and one in the exon region to generate a nonfunctional GPR35 protein. The gRNAs were designed with the CRISPR Finder (Welcome Sanger Institute). HepG2 cells were transfected with the Neon Transfection System from Thermo Fisher Scientific (Waltham, MA), according to the manufacturer’s instructions. Briefly, CrRNA and tracrRNA were annealed to gRNA at 95 °C for 5 min. Next, cells were transfected with gRNA, Cas9, and the electroporation enhancer, according to the manufacturer’s instructions. All crRNAs, tracrRNA, SpCas9 nuclease, and the electroporation enhancer were purchased from Integrated DNA Technologies (Coralville, IA). Transfected cells were plated and analyzed for editing efficiency 24–48 h after electroporation. Single-cell clones were generated by single-cell FACS sorting. Clones were expanded and to access editing efficiency, genomic DNA from cell clones was extracted and subjected to PCR to confirm the genome deletion. To further quantify and capture the genomic DNA deletion, PCR primers listed in Table S1 were designed to amplify the genomic DNA surrounding the target site. The PCR primers were linked to the sequences of the Illumina Nextera adapters. The amplified PCR products were subjected to paired-end sequencing using NextSeq500 from Illumina using paired-end chemistry with a 150-bp read length. In addition, mRNA from KO clones was isolated and subjected to RT-PCR. To further confirm the abrogation of GPR35 activation in CRISPR KO clones, KO cells were seeded onto xCELLigence E plates (2 × 10^4 cells/well) for 24 h at 37 °C prior to the treatment of GPR35 agonists. The impedance was recorded using xCELLigence RTCA. […]
HepG2 cells were seeded onto xCELLigence E plates (2 × 10^4 cells/well) and incubated for 24 h at 37 °C. […] After the addition of GPR35 agonist or vehicle control, the impedance (represented as “cell index”) was recorded every 30 s over a 2 h period using xCELLigence RTCA (Agilent). […]

HepG2 cells [2] = experiment: Label-free cellular impedance assay (xCELLigence) in HepG2 cells; assay type: cell-based, human; settings: for effect of signaling pathway inhibitor pretreatment on the impedance response to lodoxamide: HepG2 cells, FR900359 1 × 10^–7 M, Pertussis toxin 100 ng/mL, Y27632 1 × 10^–5 M
Description: HepG2 cells were seeded onto xCELLigence E plates (2 × 10^4 cells/well) and incubated for 24 h at 37 °C. To evaluate GPR35 activation and its downstream G protein signaling, HepG2 cells or primary mouse hepatocytes were exposed to GPR35 antagonists or G protein inhibitors 1 h (overnight for Pertussis toxin) prior to GPR35 agonist stimulation. After the addition of GPR35 agonist or vehicle control, the impedance (represented as “cell index”) was recorded every 30 s over a 2 h period using xCELLigence RTCA (Agilent). Each experiment was repeated at least three times.

HepG2 cells [3] = experiment: Oil Red O staining of LXR (T0901317)-induced lipid accumulation in HepG2 cells; assay type: cell-based, human; settings: 4 × 10^–6 M, 48 h
Description: Human hepatocellular carcinoma HepG2 cells were grown in Minimum Essential Medium (MEM) supplemented with 10% fetal bovine serum (FBS), 2 mM L-glutamine, 1× non-essential amino acid, 1 mM sodium pyruvate, and 1× penicillin/streptomycin. Materials for cell culture were all from Sigma-Aldrich (St. Louis, MO) or Thermo Fisher Scientific (Waltham, MA). Cells were incubated in a humidified CO2 incubator at 37 °C. […] Cells were seeded onto a 12-well plate (1 × 10^5 cells/well) for 24 h prior to drug treatment. […] Lipid accumulation was measured by Oil Red O staining.

[4] = test system: hepatocytes from hGPR35a-HA-expressing mice; experiment: Oil Red O lipid accumulation in hepatocytes from hGPR35a-HA-expressing mice; assay type: cell-based, mouse; settings: T0901317 8 × 10^–6 M
Description: (§1) All mice were bred as WT or homozygous onto a C57BL/6N background. Animals were cared for in accordance with national guidelines on animal experimentation. All animal experiments were conducted under a home office license held by the authors. WT, humanized GPR35a, or KO male mice at 3–4 months of age were used in this study. These mice were fed ad libitum with a standard mouse chow diet. Briefly, mouse primary hepatocytes were isolated using a two-step collagenase perfusion technique.[45] Twelve-well plates or xCELLigence E plates were coated with rat tail collagen I solution (Thermo Fisher Scientific) overnight at 37 °C and washed with PBS. Isolated primary hepatocytes were seeded onto 12-well plates (8 × 10^4 cells/well) or xCELLigence E plates (2 × 10^4 cells/well) in Wiliam’s E medium (Thermo Fisher Scientific) supplemented with 10% fetal bovine serum (FBS) and 1× penicillin/streptomycin. Cells were maintained for 7 days with a fresh medium change every other day. […] Human GPR35 activation was examined using xCELLigence RTCA assay. To access the impact of GPR35 agonists on the lipid accumulation, WT and humanized GPR35 hepatocytes were incubated with T0901317 and/or GPR35 agonists/antagonists, as indicated (in DMEM medium containing 5% FBS and 1.5% BSA) for 48 h. Alternatively, GPR35 KO hepatocytes were incubated with drugs, as indicated for 5 days. In the T0901317 pretreatment model, human GPR35 hepatocytes were stimulated with T0901317 for 2 days and then further treated with lodoxamide for a further 3 days. After each drug treatment, hepatocytes were stained with Oil Red O and quantified as described. Each experiment was repeated at least three times.
Lipid accumulation was measured by Oil Red O staining. A working solution of Oil Red O was prepared, as described with modification.[46] After drug treatment, cells were washed with PBS and fixed with formalin solution for 1 h at 4 °C. Then, cells were stained with Oil Red O working solution for 10 min at room temperature. After PBS washing, Oil Red O was extracted from cells using 150 μl of isopropanol and OD510 nm measured. After the lipid extraction, cells were further soaked in PBS overnight at 4 °C. These cells were then stained with Hoechst 33342 (1 μg/mL) and the fluorescence intensity of Hoechst (represents the DNA content in cells) was measured using a CLARIOstar plate reader (BMG LABTECH). Oil Red O accumulation was corrected for differences in DNA content and expressed as relative absorbency, taking the control condition (treated with vehicle only) as 1.

[5] = test system: hepatocytes from wild-type mice; experiment: Oil Red O lipid accumulation in hepatocytes from wild-type mice; assay type: cell-based, mouse; settings: 48 h; for EC50: hepatocytes from wild-type mice, co-incubation with T0901317 5 × 10^–6 M, read-out: EC50 for suppression of LXR-mediated lipid accumulation
Description: as §1, with “In the T0901317 pretreatment model, human GPR35 hepatocytes were stimulated with T0901317 for 2 days and then further treated with lodoxamide for a further 3 days.” left out, “Each experiment was repeated at least three times.” left out
(§2) Lipid accumulation was measured by Oil Red O staining. […] After PBS washing, Oil Red O was extracted from cells using 150 μl of isopropanol and OD510 nm measured. […] These cells were then stained with Hoechst 33342 (1 μg/mL) and the fluorescence intensity of Hoechst (represents the DNA content in cells) was measured using a CLARIOstar plate reader (BMG LABTECH). Oil Red O accumulation was corrected for differences in DNA content and expressed as relative absorbency, taking the control condition (treated with vehicle only) as 1.

[6] = test system: GPR35 knock-out clones of HepG2 cells; experiment: Oil Red O lipid accumulation in GPR35 knock-out clones of HepG2 cells; assay type: cell-based, human; settings: T0901317 4 × 10^–6 M, 48 h, higher baseline
Description: Human hepatocellular carcinoma HepG2 cells were grown in Minimum Essential Medium (MEM) supplemented with 10% fetal bovine serum (FBS), 2 mM L-glutamine, 1× non-essential amino acid, 1 mM sodium pyruvate, and 1× penicillin/streptomycin. Materials for cell culture were all from Sigma-Aldrich (St. Louis, MO) or Thermo Fisher Scientific (Waltham, MA). Cells were incubated in a humidified CO2 incubator at 37 °C. Experiments were performed when cell confluence reached 80%. Cells were seeded onto a 12-well plate (1 × 10^5 cells/well) for 24 h prior to drug treatment. […] Expression of full-length mRNA from the GPR35 gene was eliminated using a dual synthetic gRNA/RNP approach[43] with one guide cutting the intron and one in the exon region to generate a nonfunctional GPR35 protein. The gRNAs were designed with the CRISPR Finder (Welcome Sanger Institute). […] Transfected cells were plated and analyzed for editing efficiency 24-48 h after electroporation. […] To further quantify and capture the genomic DNA deletion, PCR primers listed in Table S1 were designed to amplify the genomic DNA surrounding the target site. […] The amplified PCR products were subjected to paired-end sequencing using NextSeq500 from Illumina using paired-end chemistry with a 150-bp read length. […] The impedance was recorded using xCELLigence RTCA. […] Lipid accumulation was measured by Oil Red O staining.

[7] = test system: hepatocytes from GPR35 knock-out mice; experiment: Oil Red O lipid accumulation in hepatocytes from GPR35 knock-out mice
Description: All mice were bred as WT or homozygous onto a C57BL/6N background. Animals were cared for in accordance with national guidelines on animal experimentation. All animal experiments were conducted under a home office license held by the authors. WT, humanized GPR35a, or KO male mice at 3–4 months of age were used in this study. These mice were fed ad libitum with a standard mouse chow diet. Briefly, mouse primary hepatocytes were isolated using a two-step collagenase perfusion technique.[45] Twelve-well plates or xCELLigence E plates were coated with rat tail collagen I solution (Thermo Fisher Scientific) overnight at 37 °C and washed with PBS. […] After each drug treatment, hepatocytes were stained with Oil Red O and quantified as described. […]
as §2

mouse GPR35 = mouse GPR35 (Mus musculus, UniProt Q9ES90); experiment: β-arrestin-based interaction assay, agonist potency at mouse GPR35; assay type: cell-based
Chain of mouse GPR35 (Q9ES90 whole entry): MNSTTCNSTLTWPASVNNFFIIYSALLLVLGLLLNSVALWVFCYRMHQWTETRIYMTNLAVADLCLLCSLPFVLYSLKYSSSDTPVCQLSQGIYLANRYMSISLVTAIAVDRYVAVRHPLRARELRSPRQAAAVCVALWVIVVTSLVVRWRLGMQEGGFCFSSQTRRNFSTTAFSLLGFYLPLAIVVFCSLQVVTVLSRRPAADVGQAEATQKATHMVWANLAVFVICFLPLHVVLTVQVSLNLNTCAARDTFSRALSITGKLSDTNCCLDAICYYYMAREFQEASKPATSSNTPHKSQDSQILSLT

human GPR35a = human GPR35a (Homo sapiens, UniProt Q9HC97); experiment: β-arrestin-based interaction assay, agonist potency at human GPR35a; assay type: cell-based
Chain of human GPR35a (Q9HC97 whole entry): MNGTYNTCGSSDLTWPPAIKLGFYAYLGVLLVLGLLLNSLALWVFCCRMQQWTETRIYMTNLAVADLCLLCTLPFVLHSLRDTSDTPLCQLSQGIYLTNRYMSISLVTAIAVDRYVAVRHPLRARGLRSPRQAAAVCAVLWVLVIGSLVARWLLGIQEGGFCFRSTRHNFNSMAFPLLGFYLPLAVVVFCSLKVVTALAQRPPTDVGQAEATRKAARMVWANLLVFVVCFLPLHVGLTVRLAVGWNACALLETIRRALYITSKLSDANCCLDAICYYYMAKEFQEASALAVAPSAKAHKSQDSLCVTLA

Nc1ncnc2c1ncn2[C@@H]1O[C@H](COP(=O)(O)OP(=O)(O)OP(=O)(O)O)[C@@H](O)[C@H]1O [ATP]
impedance response to ATP in wild-type HepG2 cells and GPR35 genome-edited clones ([1]; P2Y purinoceptor stimulus, control of responsiveness): enhanced electrical conductance

C[C@@H](N)[C@H]1CC[C@H](C(=O)Nc2ccncc2)CC1 [Y27632]
effect of signaling pathway inhibitor pretreatment on the impedance response to lodoxamide (HepG2 cells [2]): all but eliminated

O=S(=O)(c1ccccc1)N(CC(F)(F)F)c1ccc(C(O)(C(F)(F)F)C(F)(F)F)cc1 [T0901317, N-(2,2,2-trifluoroethyl)-N-[4-[2,2,2-trifluoro-1-hydroxy-1-(trifluoromethyl)ethyl]phenyl]benzenesulfonamide]
deposition of triglycerides and other lipids (Oil Red O) (HepG2 cells [3]): substantially increased | lipid accumulation (Oil Red O) in hepatocytes from hGPR35a-HA-expressing mice [4]: clear increase in lipid accumulation | lipid accumulation in mouse hepatocytes ([5]; wild-type mice, 5 × 10^–6 M): able to promote lipid accumulation | lipid accumulation on LXR activation in GPR35 knock-out clones [6]: still able to promote lipid accumulation | effect of T0901317 on lipid accumulation in hepatocytes from GPR35 knock-out mice ([7]; equivalent time of exposure as in wild-type hepatocytes (48 h)): modest

C=C1C(=O)N[C@@H](C)C(=O)N(C)[C@@H](C)C(=O)N[C@@H]([C@H](OC(=O)[C@@H](NC(=O)CC)[C@H](O)C(C)C)C(C)C)C(=O)N(C)[C@@H]([C@@H](C)OC)C(=O)O[C@H](C(C)C)[C@H](NC(C)=O)C(=O)O[C@H](Cc2ccccc2)C(=O)N1C [FR900359] (Ac-[X1][dPhLac][NMeDha]A[NMeA][X1](Leu(3R-OH,Nα-propionyl))[NMeT](Me); ester 1-C)
effect of signaling pathway inhibitor pretreatment on the impedance response to lodoxamide (HepG2 cells [2]): without effect

CCCOc1ccccc1-c1nc2nn[nH]c2c(=O)[nH]1 [zaprinast]
EC50 (mouse GPR35): 0.661 µM | impedance signal in parental HepG2 cells (HepG2 cells [2]; 1 × 10^–5 M): produced positive signals | impedance signal in GPR35 genome-edited clones 19 and 27 ([1]; 1 × 10^–5 M): not in either clone 19 or 27

CCCCc1cc2c(=O)cc(C(=O)O)[nH]c2c2c(=O)cc(C(=O)O)[nH]c12 [bufrolin, 6-butyl-4,10-dioxo-1,7-dihydro-1,7-phenanthroline-2,8-dicarboxylic acid]
EC50 ([5]; Mus musculus, Hepatocyte): 0.0787 µM | EC50 [5]: 0.079 µM and ~0.08 µM | fold more potent than lodoxamide at mouse GPR35 (mouse GPR35; bufrolin versus lodoxamide): more than 10 fold | fold lower potency at mouse GPR35 than at human GPR35 (mouse GPR35; mouse versus human GPR35): ~10 fold | EC50 (mouse GPR35; read-out: EC50 at the mouse GPR35): < 0.1 µM | EC50 (mouse GPR35; β-arrestin-based interaction assay, read-out: mouse GPR35, pEC50 (converted)): 0.155 µM | suppression of lipid accumulation induced by T0901317 in hepatocytes from GPR35 knock-out mice ([7]; treatment for 5 days): did not suppress lipid accumulation | ratio (log) (H/M) (human GPR35a; log ratio of potency at human GPR35a over mouse GPR35): 1.02 ± 0.06 | EC50 (human GPR35a; β-arrestin-based interaction assay, read-out: human GPR35a, pEC50 (converted)): 0.0148 µM

Pertussis toxin
effect of signaling pathway inhibitor pretreatment on the impedance response to lodoxamide (HepG2 cells [2]): small although a statistically nonsignificant reduction

From paper PMC8669712, “G Protein-Coupled Receptor GPR35 Suppresses Lipid Accumulation in Hepatocytes” (ACS Pharmacology & Translational Science, 2021)
